Results as given in ChEMBL document CHEMBL2311520, “Total synthesis of AMF-26, an antitumor agent for inhibition of the Golgi system, targeting ADP-ribosylation factor 1” (J Med Chem, 2013).
Active and inactive are the calls of the source. No cut-off for these calls is given here.

Tests used:
[1] = Induction of golgi disassembly in human HBC4 cells assessed as presence of GBF1 in cytoplasm after 1 hr by immunofluorescence microscopy; assay type: functional, cell-based
[2] = Induction of golgi disassembly in human BSY1 cells assessed as presence of GBF1 in cytoplasm after 1 hr by immunofluorescence microscopy; assay type: functional, cell-based; conditions: bsy-1
HBC4 [3] = test: Induction of golgi disassembly in human HBC4 cells assessed as presence of GBF1 in cytoplasm at 10 uM after 1 hr by immunofluorescence microscopy; assay type: functional, cell-based
BSY-1 [4] = test: Induction of golgi disassembly in human BSY1 cells assessed as presence of GBF1 in cytoplasm at 1 uM after 1 hr by immunofluorescence microscopy; assay type: functional, cell-based
[5] = Growth inhibition of human HBC4 cells after 48 hrs by Sulforhodamine B assay; assay type: functional; conditions: Homo sapiens, HBC4, 48 h; read-out: GI50
[6] = Growth inhibition of human BSY1 cells after 48 hrs by Sulforhodamine B assay; assay type: functional; conditions: BSY-1, 48 h, read-out: GI50
HBC4 [7] = test: Induction of golgi disassembly in human HBC4 cells assessed as presence of GBF1 in cytoplasm at 0.1 to 1 uM after 1 hr by immunofluorescence microscopy; assay type: functional, cell-based
BSY-1 [8] = test: Induction of golgi disassembly in human BSY1 cells assessed as presence of GBF1 in cytoplasm at 0.1 to 1 uM after 1 hr by immunofluorescence microscopy; assay type: functional, cell-based

EC50 [1] | EC50 [2] | SMILES | Activity (HBC4 [3]) | Activity (BSY-1 [4]) | GI50 [5] | GI50 [6] | Activity (HBC4 [7]) | Activity (BSY-1 [8])
> 10 µM | > 10 µM | C[C@@H]1[C@@H](O)[C@H](C)C[C@@H]2C=C[C@H](C)[C@H](/C=C/C(=O)NCc3cccnc3)[C@@H]12 | inactive | inactive | > 10 µM | > 10 µM |  | 
0.34 µM | 0.85 µM | CC/C(=C\C=C\[C@@H]1[C@H]2[C@H](C)[C@@H](O)[C@H](C)C[C@@H]2C=C[C@@H]1C)C(=O)NCc1cccnc1 |  |  | 0.55 µM | 0.19 µM | Active | Active
